Source: patent US20260256792A1, “TREATMENT OF CHRONIC SPONTANEOUS URTICARIA BY ADMINISTERING (R)-2-[3-[4-AMINO-3-(2-FLUORO-4-PHENOXY-PHENYL)PYRAZOLO[3,4-D]PYRIMIDIN-1-YL]PIPERIDINE-1-CARBONYL]-4-METHYL-4-[4-(OXETAN-3-YL)PIPERAZIN-1-YL]PENT-2-ENENITRILE” (priority 2023, published 2026)

Tested on: moderate-to-severe chronic spontaneous urticaria (CSU)
Assay: Phase 2 CSU study: itch severity score over 7 days (ISS7)
Format: in vivo, human
Conditions: Omalizumab-Naïve Population
Description: The study comprises a 12 week, randomized, double-blind, placebo-controlled, multi-center, dose-ranging efficacy and safety phase, followed by a 40 week open label extension (OLE) phase (see FIG. 1). The study consists of three phases and an optional OLE phase. […] Clinically, CSU is characterized by the spontaneous and recurrent appearance of pruritic hives. The proposed primary endpoints were the UAS7 at Week 12 in EU and EU reference countries and the ISS7 in the US. Regardless of where a participant was from, all assessments were the same. The UAS7 score is a composite score containing both the HSS7 and the ISS7. This allowed a global assessment of the two key components of urticaria: hives and itch. […] The UAS is a validated PRO measure. […] The daily UAS scores range from 0 to 6 point/day. […] Patients were to complete the UAS using the e-diary. […] The following secondary endpoints were to be analyzed using the same approach as for the primary endpoint: • Change from baseline in UAS7 at Week 4 • Change from baseline in UAS7 at Week 12 (for US and US reference countries) • Change from baseline in ISS7 at Week 12 (except US and US reference countries) • Change from baseline in HSS7 at Week 12

SMILES: CC(C)(C=C(C#N)C(=O)N1CCC[C@@H](n2nc(-c3ccc(Oc4ccccc4)cc3F)c3c(N)ncnc32)C1)N1CCN(C2COC2)CC1 [rilzabrutinib, (R)-2-[3-[4-amino-3-(2-fluoro-4-phenoxy-phenyl)pyrazolo[3,4-d]pyrimidin-1-yl]piperidine-1-carbonyl]-4-methyl-4-[4-(oxetan-3-yl)piperazin-1-yl]pent-2-enenitrile]
- Imputed non-responder n (%) (ISS7 reduction of 5 points or more) (400 mg BID, Week 3): 0 n (%)
- Non-responder n (%) (ISS7 reduction of 5 points or more) (400 mg BID, Week 3): 17 (48.6) n (%)
- OR for rilzabrutinib vs. placebo (ISS7 reduction of 5 points or more) (400 mg BID, Week 3): 2.418
- RRD (%) for rilzabrutinib vs. placebo (ISS7 reduction of 5 points or more) (400 mg BID, Week 3): 21.1%
- Responder n (%) (ISS7 reduction of 5 points or more) (400 mg BID, Week 3): 18 (51.4) n (%)
- Imputed non-responder n (%) (ISS7 reduction of 5 points or more) (400 mg BID, Week 4): 2 (5.7) n (%)
- Non-responder n (%) (ISS7 reduction of 5 points or more) (400 mg BID, Week 4): 17 (48.6) n (%)
- OR for rilzabrutinib vs. placebo (ISS7 reduction of 5 points or more) (400 mg BID, Week 4): 1.476
- Responder n (%) (ISS7 reduction of 5 points or more) (400 mg BID, Week 4): 18 (51.4) n (%)
- Imputed non-responder n (%) (ISS7 reduction of 5 points or more) (400 mg BID, Week 5): 2 (5.7) n (%)
- Non-responder n (%) (ISS7 reduction of 5 points or more) (400 mg BID, Week 5): 15 (42.9) n (%)
- OR for rilzabrutinib vs. placebo (ISS7 reduction of 5 points or more) (400 mg BID, Week 5): 1.334
- RRD (%) for rilzabrutinib vs. placebo (ISS7 reduction of 5 points or more) (400 mg BID, Week 5): 7.3%
- Responder n (%) (ISS7 reduction of 5 points or more) (400 mg BID, Week 5): 20 (57.1) n (%)
- Imputed non-responder n (%) (ISS7 reduction of 5 points or more) (400 mg BID, Week 6): 2 (5.7) n (%)
- Non-responder n (%) (ISS7 reduction of 5 points or more) (400 mg BID, Week 6): 17 (48.6) n (%)
- OR for rilzabrutinib vs. placebo (ISS7 reduction of 5 points or more) (400 mg BID, Week 6): 1.326
- RRD (%) for rilzabrutinib vs. placebo (ISS7 reduction of 5 points or more) (400 mg BID, Week 6): 7.1%
- Responder n (%) (ISS7 reduction of 5 points or more) (400 mg BID, Week 6): 18 (51.4) n (%)
- Imputed non-responder n (%) (ISS7 reduction of 5 points or more) (400 mg BID, Week 7): 2 (5.7) n (%)
- Non-responder n (%) (ISS7 reduction of 5 points or more) (400 mg BID, Week 7): 16 (45.7) n (%)
- OR for rilzabrutinib vs. placebo (ISS7 reduction of 5 points or more) (400 mg BID, Week 7): 1.533
- Responder n (%) (ISS7 reduction of 5 points or more) (400 mg BID, Week 7): 19 (54.3) n (%)
- Imputed non-responder n (%) (ISS7 reduction of 5 points or more) (400 mg BID, Week 8): 3 (8.6) n (%)
- Non-responder n (%) (ISS7 reduction of 5 points or more) (400 mg BID, Week 8): 13 (37.1) n (%)
- OR for rilzabrutinib vs. placebo (ISS7 reduction of 5 points or more) (400 mg BID, Week 8): 1.690
- RRD (%) for rilzabrutinib vs. placebo (ISS7 reduction of 5 points or more) (400 mg BID, Week 8): 13.7%
- Responder n (%) (ISS7 reduction of 5 points or more) (400 mg BID, Week 8): 22 (62.9) n (%)
- Imputed non-responder n (%) (ISS7 reduction of 5 points or more) (400 mg BID, Week 9): 7 (20.0) n (%)
- Non-responder n (%) (ISS7 reduction of 5 points or more) (400 mg BID, Week 9): 16 (45.7) n (%)
- OR for rilzabrutinib vs. placebo (ISS7 reduction of 5 points or more) (400 mg BID, Week 9): 1.462
- Responder n (%) (ISS7 reduction of 5 points or more) (400 mg BID, Week 9): 19 (54.3) n (%)
- Imputed non-responder n (%) (ISS7 reduction of 5 points or more) (400 mg BID, Week 10): 8 (22.9) n (%)
- Non-responder n (%) (ISS7 reduction of 5 points or more) (400 mg BID, Week 10): 19 (54.3) n (%)
- OR for rilzabrutinib vs. placebo (ISS7 reduction of 5 points or more) (400 mg BID, Week 10): 0.883
- RRD (%) for rilzabrutinib vs. placebo (ISS7 reduction of 5 points or more) (400 mg BID, Week 10): −3.1%
- Responder n (%) (ISS7 reduction of 5 points or more) (400 mg BID, Week 10): 16 (45.7) n (%)
- Imputed non-responder n (%) (ISS7 reduction of 5 points or more) (400 mg BID, Week 11): 7 (20.0) n (%)
- Non-responder n (%) (ISS7 reduction of 5 points or more) (400 mg BID, Week 11): 16 (45.7) n (%)
- OR for rilzabrutinib vs. placebo (ISS7 reduction of 5 points or more) (400 mg BID, Week 11): 0.963
- RRD (%) for rilzabrutinib vs. placebo (ISS7 reduction of 5 points or more) (400 mg BID, Week 11): −1.0%
- Responder n (%) (ISS7 reduction of 5 points or more) (400 mg BID, Week 11): 19 (54.3) n (%)
- Imputed non-responder n (%) (ISS7 reduction of 5 points or more) (400 mg BID, Week 12): 11 (31.4) n (%)
- Non-responder n (%) (ISS7 reduction of 5 points or more) (400 mg BID, Week 12): 18 (51.4) n (%)
- OR for rilzabrutinib vs. placebo (ISS7 reduction of 5 points or more) (400 mg BID, Week 12): 1.095
- RRD (%) for rilzabrutinib vs. placebo (ISS7 reduction of 5 points or more) (400 mg BID, Week 12): 2.4%
- Responder n (%) (ISS7 reduction of 5 points or more) (400 mg BID, Week 12): 17 (48.6) n (%)
- Imputed non-responder n (%) (ISS7 reduction of 5 points or more) (400 mg QPM, Week 1): 0 n (%)
- Non-responder n (%) (ISS7 reduction of 5 points or more) (400 mg QPM, Week 1): 25 (67.6) n (%)
- OR for rilzabrutinib vs. placebo (ISS7 reduction of 5 points or more) (400 mg QPM, Week 1): 1.691
- Responder n (%) (ISS7 reduction of 5 points or more) (400 mg QPM, Week 1): 12 (32.4) n (%)
- Imputed non-responder n (%) (ISS7 reduction of 5 points or more) (400 mg QPM, Week 2): 0 n (%)
- Non-responder n (%) (ISS7 reduction of 5 points or more) (400 mg QPM, Week 2): 23 (62.2) n (%)
- OR for rilzabrutinib vs. placebo (ISS7 reduction of 5 points or more) (400 mg QPM, Week 2): 1.637
- Responder n (%) (ISS7 reduction of 5 points or more) (400 mg QPM, Week 2): 14 (37.8) n (%)
- Imputed non-responder n (%) (ISS7 reduction of 5 points or more) (400 mg QPM, Week 3): 0 n (%)
- Non-responder n (%) (ISS7 reduction of 5 points or more) (400 mg QPM, Week 3): 20 (54.1) n (%)
- OR for rilzabrutinib vs. placebo (ISS7 reduction of 5 points or more) (400 mg QPM, Week 3): 1.910
- RRD (%) for rilzabrutinib vs. placebo (ISS7 reduction of 5 points or more) (400 mg QPM, Week 3): 16.0%
- Responder n (%) (ISS7 reduction of 5 points or more) (400 mg QPM, Week 3): 17 (45.9) n (%)
- Imputed non-responder n (%) (ISS7 reduction of 5 points or more) (400 mg QPM, Week 4): 1 (2.7) n (%)
- Non-responder n (%) (ISS7 reduction of 5 points or more) (400 mg QPM, Week 4): 20 (54.1) n (%)
- OR for rilzabrutinib vs. placebo (ISS7 reduction of 5 points or more) (400 mg QPM, Week 4): 1.231
- RRD (%) for rilzabrutinib vs. placebo (ISS7 reduction of 5 points or more) (400 mg QPM, Week 4): 5.0%
- Responder n (%) (ISS7 reduction of 5 points or more) (400 mg QPM, Week 4): 17 (45.9) n (%)
- Imputed non-responder n (%) (ISS7 reduction of 5 points or more) (400 mg QPM, Week 5): 2 (5.4) n (%)
- Non-responder n (%) (ISS7 reduction of 5 points or more) (400 mg QPM, Week 5): 21 (56.8) n (%)
- OR for rilzabrutinib vs. placebo (ISS7 reduction of 5 points or more) (400 mg QPM, Week 5): 0.787
- RRD (%) for rilzabrutinib vs. placebo (ISS7 reduction of 5 points or more) (400 mg QPM, Week 5): −6.3%
- Responder n (%) (ISS7 reduction of 5 points or more) (400 mg QPM, Week 5): 16 (43.2) n (%)
- Imputed non-responder n (%) (ISS7 reduction of 5 points or more) (400 mg QPM, Week 6): 4 (10.8) n (%)
- Non-responder n (%) (ISS7 reduction of 5 points or more) (400 mg QPM, Week 6): 20 (54.1) n (%)
- OR for rilzabrutinib vs. placebo (ISS7 reduction of 5 points or more) (400 mg QPM, Week 6): 1.088
- RRD (%) for rilzabrutinib vs. placebo (ISS7 reduction of 5 points or more) (400 mg QPM, Week 6): 2.0%
- Responder n (%) (ISS7 reduction of 5 points or more) (400 mg QPM, Week 6): 17 (45.9) n (%)
- Imputed non-responder n (%) (ISS7 reduction of 5 points or more) (400 mg QPM, Week 7): 6 (16.2) n (%)
- Non-responder n (%) (ISS7 reduction of 5 points or more) (400 mg QPM, Week 7): 19 (51.4) n (%)
- OR for rilzabrutinib vs. placebo (ISS7 reduction of 5 points or more) (400 mg QPM, Week 7): 1.176
- RRD (%) for rilzabrutinib vs. placebo (ISS7 reduction of 5 points or more) (400 mg QPM, Week 7): 4.0%
- Responder n (%) (ISS7 reduction of 5 points or more) (400 mg QPM, Week 7): 18 (48.6) n (%)
- Imputed non-responder n (%) (ISS7 reduction of 5 points or more) (400 mg QPM, Week 8): 7 (18.9) n (%)
- Non-responder n (%) (ISS7 reduction of 5 points or more) (400 mg QPM, Week 8): 20 (54.1) n (%)
- OR for rilzabrutinib vs. placebo (ISS7 reduction of 5 points or more) (400 mg QPM, Week 8): 0.843
- RRD (%) for rilzabrutinib vs. placebo (ISS7 reduction of 5 points or more) (400 mg QPM, Week 8): −4.4%
- Responder n (%) (ISS7 reduction of 5 points or more) (400 mg QPM, Week 8): 17 (45.9) n (%)
- Imputed non-responder n (%) (ISS7 reduction of 5 points or more) (400 mg QPM, Week 9): 6 (16.2) n (%)
- Non-responder n (%) (ISS7 reduction of 5 points or more) (400 mg QPM, Week 9): 18 (48.6) n (%)
- OR for rilzabrutinib vs. placebo (ISS7 reduction of 5 points or more) (400 mg QPM, Week 9): 1.328
- RRD (%) for rilzabrutinib vs. placebo (ISS7 reduction of 5 points or more) (400 mg QPM, Week 9): 6.5%
- Responder n (%) (ISS7 reduction of 5 points or more) (400 mg QPM, Week 9): 19 (51.4) n (%)
- Imputed non-responder n (%) (ISS7 reduction of 5 points or more) (400 mg QPM, Week 10): 6 (16.2) n (%)
